Data published in article PMC9583330, “Quinazoline-4(3H)-one-7-carboxamide Derivatives as Human Soluble Epoxide Hydrolase Inhibitors with Developable 5-Lipoxygenase Activating Protein Inhibition” (ACS Omega, 2022).
Like-named read-outs stand apart in the source and are kept apart here.

Tests used:
Human recombinant sEH [1] = target: T1, Human recombinant sEH (Homo sapiens, UniProt P34913); set-up: method as in PMID 32045233; details: previously identified compound; cited from earlier work
T1 construct: made in house; host or cells: Sf9 insect cells, recombinant baculovirus from Dr. B. Hammock
T1 sequence (P34913 1-555): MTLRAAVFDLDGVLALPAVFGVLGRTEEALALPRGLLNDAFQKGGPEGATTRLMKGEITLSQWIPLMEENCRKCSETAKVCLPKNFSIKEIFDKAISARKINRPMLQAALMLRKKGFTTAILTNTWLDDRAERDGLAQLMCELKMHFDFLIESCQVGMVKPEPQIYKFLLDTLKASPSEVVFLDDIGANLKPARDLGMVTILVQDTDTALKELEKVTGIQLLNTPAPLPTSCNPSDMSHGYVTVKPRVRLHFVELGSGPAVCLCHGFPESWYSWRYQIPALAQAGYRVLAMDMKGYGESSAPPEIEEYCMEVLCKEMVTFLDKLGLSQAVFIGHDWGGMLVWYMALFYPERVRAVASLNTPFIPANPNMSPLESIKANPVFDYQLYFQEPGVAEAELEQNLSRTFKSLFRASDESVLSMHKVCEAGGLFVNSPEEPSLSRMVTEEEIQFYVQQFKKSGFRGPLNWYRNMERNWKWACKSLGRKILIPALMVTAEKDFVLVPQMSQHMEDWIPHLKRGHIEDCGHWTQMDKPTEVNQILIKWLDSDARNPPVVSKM

[2] = system: FLAP-mediated cellular LT formation in human neutrophils; set-up: method as in PMID 32045233; details: previously identified; read-out: IC50, inhibition of cellular leukotriene (LT) biosynthesis by targeting FLAP; cited from earlier work
Human recombinant sEH [3] = target: T1, Human recombinant sEH; test: sEH cell-free fluorescence-based assay (PHOME substrate); type: biochemical; details: means ± SEM, n = 3; for IC50: cell-free assay, human sEH; for remaining activity at 10 µM: residual activity at 10 μM, control = vehicle 100%
Procedure: Human recombinant sEH was expressed and purified as reported before.[46] In brief, Sf9 cells were infected with a recombinant baculovirus (kindly provided by Dr. B. Hammock, University of California, Davis, CA). Seventy-two hours post-transfection, cells were pelleted and sonicated (3 × 10 s at 4 °C) in lysis buffer containing NaHPO4 (50 mM, pH 8), NaCl (300 mM), glycerol (10%), EDTA (1 mM), phenylmethanesulfonyl fluoride (1 mM), leupeptin (10 μg/mL), and a soybean trypsin inhibitor (60 μg/mL). Supernatants after centrifugation at 100,000 × g (60 min, 4 °C) were subjected to benzylthio-sepharose-affinity chromatography in order to purify sEH by elution with 4-fluorochalcone oxide in PBS containing 1 mM DTT and 1 mM EDTA. Dialyzed and concentrated (Millipore Amicon-Ultra-15 centrifugal filter) enzyme solution was assayed for total protein with a Bio-Rad protein detection kit (Bio-Rad Laboratories, Munich, Germany), and the epoxide hydrolase activity was determined by using a fluorescence-based assay as described before.[47] Shortly, sEH was diluted in Tris buffer (25 mM, pH 7) supplemented with BSA (0.1 mg/mL) to an appropriate enzyme concentration and preincubated with test compounds or vehicle (0.1% DMSO) for 10 min at room temperature (RT). The reaction was started by the addition of 50 μM 3-phenyl-cyano(6-methoxy-2-naphthalenyl)methyl ester-2-oxiraneacetic acid (PHOME), a nonfluorescent compound that is enzymatically converted into fluorescent 6-methoxy-naphtaldehyde at RT. After 60 min, reactions were stopped by ZnSO4 (200 mM) and fluorescence was detected (λem 465 nm, λex 330 nm) using a NOVOstar microplate reader (BMG Labtech GmbH, Ortenberg, Germany), and potential fluorescence of test compounds was subtracted from the read-out, if required.

[4] = system: FLAP-mediated cellular LT formation in human neutrophils; test: FLAP-dependent 5-LO product formation in intact neutrophils; type: cell-based; details: Neutrophil; for IC50: Homo sapiens, intact neutrophils challenged with 2.5 μM ionophore plus 20 μM arachidonic acid; for activity at 1 µM: 1 μM inhibitor, read-out: 5-LO product formation in neutrophils, remaining activity (% of control) at 1 μM; for activity at 1 µM / activity at 10 µM: human neutrophils, 2.5 μM Ca2+-ionophore A23187, means ± SEM, n = 4–5; for activity at 10 µM: 10 μM inhibitor, read-out: 5-LO product formation in neutrophils, remaining activity (% of control) at 10 μM
Procedure: Neutrophils were isolated from leukocyte concentrates obtained from freshly withdrawn peripheral blood of healthy adult male and female donors which were provided by the Institute of Transfusion Medicine, University Hospital Jena, Germany. The experimental protocol was approved by the ethical committee of the University Hospital Jena, and all methods were performed in accordance with the relevant guidelines and regulations. The leukocyte concentrates were mixed with dextran (from Leuconostoc spp. MW ∼40,000, Sigma Aldrich) for sedimentation of erythrocytes, and the supernatant was centrifuged on lymphocyte separation medium (Histopaque-1077, Sigma Aldrich). Contaminating erythrocytes in the pelleted neutrophils were removed by hypotonic lysis using distilled water. The neutrophils were washed twice in ice-cold PBS pH 7.4 and finally resuspended in PBS pH 7.4 plus 1 mg/mL glucose (PGC buffer).
Human neutrophils [5 × 10^6; in PGC buffer; incubation volume, 1 mL] were preincubated with 0.1% DMSO (vehicle) or with the compounds at 37 °C for 15 min. […] Samples were then subjected to solid-phase extraction on C18-columns (100 mg, UCT, Bristol, PA), and 5-LO products (LTB4 and its trans-isomers, and 5-H(p)ETE) were extracted and analyzed in the presence of internal standard PGB1 by RP-HPLC and UV detection as reported elsewhere.[45]

For O=C(O)c1ccc2c(=O)n(Cc3ccccc3)c(SCc3ccc(Cl)c(Cl)c3)nc2c1 [Compound 5], the “activity against sEH (in words)” value (Human recombinant sEH [1]) is given as “without any activity against sEH” and the IC50 [2] is given as 870 nM.

With CC(C)(C)CNC(=O)c1ccc2c(=O)[nH]c(SCc3ccc(Cl)c(Cl)c3)nc2c1 [Compound 38, 2-((3,4-Dichlorobenzyl)thio)-N-neopentyl-4-oxo-3,4-dihydroquinazoline-7-carboxamide] the IC50 (Human recombinant sEH [3]) was 1600 ± 100 nM, the IC50 [4] was under 10000 nM and the activity at 1 µM [4] was 105 ± 3.1%. The activity at 10 µM [4] was 34.9 ± 10.6% and the melting point was 215.5 to 216.9 °C.

For CC(C)NC(=O)c1ccc2c(=O)[nH]c(SCc3ccccc3Cl)nc2c1 [Compound 45, 2-((2-Chlorobenzyl)thio)-N-isopropyl-4-oxo-3,4-dihydroquinazoline-7-carboxamide], the IC50 (Human recombinant sEH [3]) was over 10000 nM, the remaining activity at 10 µM (Human recombinant sEH [3]) was 71% and the IC50 [4] was over 10000 nM. The activity at 1 µM [4] was 96.6 ± 6.7%, the activity at 10 µM [4] was 70.3 ± 21.4% and the melting point was 306.3 °C (dec.).

In the case of CC(C)(C)CNC(=O)c1ccc2c(=O)[nH]c(NCc3ccccc3Cl)nc2c1 [Compound 55, 2-((2-Chlorobenzyl)amino)-N-neopentyl-4-oxo-3,4-dihydroquinazoline-7-carboxamide], the IC50 (Human recombinant sEH [3]) is reported as over 10000 nM, the remaining activity at 10 µM (Human recombinant sEH [3]) is reported as 68% and the IC50 [4] is reported as 2700 ± 800 nM. It also gave an activity at 1 µM [4] of 77.9 ± 12.1%, an activity at 10 µM [4] of 8.9 ± 3.6% and a melting point of 176.7 to 178.7 °C.
